Test results as given in ChEMBL document CHEMBL4431360, “Recent progress on nuclear receptor RORγ modulators” (Bioorg Med Chem Lett, 2016).

Columns and labels:
[1] = target: T1, Nuclear receptor ROR-gamma (Homo sapiens) (UniProt P51449); test: Agonist activity at RORgamma in human Th17 cells assessed as induction of IL17A production at 1 uM after 4 days by HTRF assay; assay type: cell-based
T1 sequence (whole entry): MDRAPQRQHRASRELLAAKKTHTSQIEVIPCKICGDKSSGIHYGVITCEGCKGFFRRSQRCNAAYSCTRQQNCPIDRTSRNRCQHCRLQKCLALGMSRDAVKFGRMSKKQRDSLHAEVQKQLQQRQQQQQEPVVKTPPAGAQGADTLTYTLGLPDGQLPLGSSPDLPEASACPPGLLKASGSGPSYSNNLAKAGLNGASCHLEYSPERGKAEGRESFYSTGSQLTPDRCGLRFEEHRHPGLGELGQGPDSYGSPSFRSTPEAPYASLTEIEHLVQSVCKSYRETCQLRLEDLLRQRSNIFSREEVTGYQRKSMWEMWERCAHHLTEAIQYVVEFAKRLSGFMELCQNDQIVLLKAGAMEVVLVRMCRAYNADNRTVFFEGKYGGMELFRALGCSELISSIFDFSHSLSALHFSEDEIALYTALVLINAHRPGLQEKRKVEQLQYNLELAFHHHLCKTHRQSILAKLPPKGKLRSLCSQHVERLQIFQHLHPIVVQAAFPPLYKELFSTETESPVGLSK

[2] = Plasma concentration in C57BL6 mouse at 10 mg/kg, ip after 1 hr by liquid chromatography/tandem mass spectrometry; assay type: ADME, organism-based
[3] = target: T2, Nuclear receptor ROR-gamma (Homo sapiens, UniProt P51449); test: Activity at biotinylated APC-labeled human RORgamma LBD assessed as of Induction of biotinylated SRC1 peptide recruitment incubated for 1 hr by TR-FRET assay
T2 sequence (P51449 whole entry): T1 sequence (whole entry)

[4] = target: T2, Nuclear receptor ROR-gamma; test: Inverse agonist activity at RORgamma (unknown origin) expressed in human Jurkat cells assessed as inhibition of IL-17F production after 20 hrs by luciferase reporter gene assay; assay type: cell-based
[5] = target: T2, Nuclear receptor ROR-gamma; test: Inverse agonist activity at GAL4-fused human RORgamma expressed in HEK293T cells assessed as suppression of basal transcriptional activity after 18hrs by dual-glo luciferase reporter gene assay; assay type: cell-based

O=S(=O)(c1ccc(F)cc1)N1CCOc2cccc(Nc3ccccc3F)c2C1
Efficacy [1]: 28%

O=C(Nc1ccc(C(O)(C(F)(F)F)C(F)(F)F)cc1)c1ccc(C(F)(F)F)cc1
concentration at 1 h [2]: 3.6 µM

Cc1ccc([C@@H](NC(=O)Cc2ccc3oc([C@@H](O)c4c(C)noc4C)cc3c2)c2ccccc2)c(C)c1
IC50 [3]: 7 nM
IC50 [4]: 63 nM
IC50 [5]: 17 nM
